Experimental data from the supplement of paper PMC11061612.

Key:
[1] = test system: VCaP (Prostate Carcinoma); experiment: Bliss excess, mean over the matrix (fraction); higher = more synergy
Method in brief: (§1)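 Bliss excess equals the observed combination effect minus the expected value EA + EB − EA·EB, where EA and EB are the effects of each agent alone. Combination Emax is the second-highest inhibition within the matrix. Inhibition was scaled from CellTiter-Glo 2.0 luminescence, with 0 set by vehicle wells and 1 by blank wells, after 72 hours of two-drug dosing of cells plated in 1536-well plates.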

[2] = test system: U-2-OS (Osteosarcoma); experiment: as above
Method in brief: as §1

[3] = test system: PANC-10-05 (Pancreatic Carcinoma); experiment: as above
Method in brief: as §1

[4] = test system: KARPAS-422 (B-Cell Non-Hodgkin's Lymphoma); experiment: as above
Method in brief: as §1

[5] = test system: CAPAN-2 (Pancreatic Carcinoma); experiment: as above
Method in brief: as §1

[6] = test system: NCI-H1581 (Non-Small Cell Lung Carcinoma); experiment: as above
Method in brief: as §1

[7] = test system: NCI-H1666 (Lung Adenocarcinoma); experiment: as above
Method in brief: as §1

[8] = test system: ONS-76 (Other Solid Carcinomas); experiment: as above
Method in brief: as §1

[9] = test system: COLO-320-HSR (Colorectal Carcinoma); experiment: as above
Method in brief: as §1

[10] = test system: NY (Osteosarcoma); experiment: as above
Method in brief: as §1

[11] = test system: CCK-81 (Colorectal Carcinoma); experiment: as above
Method in brief: as §1

[12] = test system: IGR-37 (Melanoma); experiment: as above
Method in brief: as §1

[13] = test system: ECC10 (Gastric Carcinoma); experiment: as above
Method in brief: as §1

[14] = test system: BICR22 (Oral Cavity Carcinoma); experiment: as above
Method in brief: as §1

[15] = test system: NCI-H2066 (Squamous Cell Lung Carcinoma); experiment: as above
Method in brief: as §1

[16] = test system: FU97 (Gastric Carcinoma); experiment: as above
Method in brief: as §1

[17] = test system: TT (Thyroid Gland Carcinoma); experiment: as above
Method in brief: as §1

[18] = test system: NCI-H64 (Small Cell Lung Carcinoma); experiment: as above
Method in brief: as §1

[19] = test system: VCaP (Prostate Carcinoma); experiment: combination Emax (second highest fraction inhibited in the dose matrix, 72 h); higher = more inhibition; extreme values may be limits of the assay
Method in brief: as §1

[20] = test system: U-2-OS (Osteosarcoma); experiment: as above
Method in brief: as §1

[21] = test system: PANC-10-05 (Pancreatic Carcinoma); experiment: as above
Method in brief: as §1

[22] = test system: KARPAS-422 (B-Cell Non-Hodgkin's Lymphoma); experiment: as above
Method in brief: as §1

[23] = test system: CAPAN-2 (Pancreatic Carcinoma); experiment: as above
Method in brief: as §1

[24] = test system: NCI-H1581 (Non-Small Cell Lung Carcinoma); experiment: as above
Method in brief: as §1

[25] = test system: NCI-H1666 (Lung Adenocarcinoma); experiment: as above
Method in brief: as §1

[26] = test system: ONS-76 (Other Solid Carcinomas); experiment: as above
Method in brief: as §1

[27] = test system: COLO-320-HSR (Colorectal Carcinoma); experiment: as above
Method in brief: as §1

[28] = test system: NY (Osteosarcoma); experiment: as above
Method in brief: as §1

[29] = test system: CCK-81 (Colorectal Carcinoma); experiment: as above
Method in brief: as §1

[30] = test system: IGR-37 (Melanoma); experiment: as above
Method in brief: as §1

[31] = test system: ECC10 (Gastric Carcinoma); experiment: as above
Method in brief: as §1

[32] = test system: BICR22 (Oral Cavity Carcinoma); experiment: as above
Method in brief: as §1

[33] = test system: NCI-H2066 (Squamous Cell Lung Carcinoma); experiment: as above
Method in brief: as §1

[34] = test system: FU97 (Gastric Carcinoma); experiment: as above
Method in brief: as §1

[35] = test system: TT (Thyroid Gland Carcinoma); experiment: as above
Method in brief: as §1

[36] = test system: NCI-H64 (Small Cell Lung Carcinoma); experiment: as above
Method in brief: as §1

SMILES | Bliss excess [1] | Bliss excess [2] | Bliss excess [3] | Bliss excess [4] | Bliss excess [5] | Bliss excess [6] | Bliss excess [7] | Bliss excess [8] | Bliss excess [9] | Bliss excess [10] | Bliss excess [11] | Bliss excess [12] | Bliss excess [13] | Bliss excess [14] | Bliss excess [15] | Bliss excess [16] | Bliss excess [17] | Bliss excess [18] | combination Emax [19] | combination Emax [20] | combination Emax [21] | combination Emax [22] | combination Emax [23] | combination Emax [24] | combination Emax [25] | combination Emax [26] | combination Emax [27] | combination Emax [28] | combination Emax [29] | combination Emax [30] | combination Emax [31] | combination Emax [32] | combination Emax [33] | combination Emax [34] | combination Emax [35] | combination Emax [36]
C[C@@H](Nc1cc(F)cc(F)c1)c1cc(C(=O)N(C)C)cc2c(=O)cc(N3CCOCC3)oc12 [AZD8186] + C1CN(CCC1(C(=O)N[C@@H](CCO)C2=CC=C(C=C2)Cl)N)C3=NC=NC4=C3C=CN4 [AZD5363] (first compound max 10 µM, 7x7, partner max 10 µM) | -0.0177 | -0.0324 | -0.0847 | -0.106 | -0.0305 | -0.0207 | -0.0707 | -0.028 | 0.0159 | 0.0425 | -0.0118 | 0.0334 | 0.0141 | 0.0421 | -0.0364 | -0.0072 | -0.0413 | 0.0116 | 0.443 | 0.279 | 0.436 | 0.628 | 0.285 | 0.101 | 0.406 | 0.312 | 0.184 | 0.325 | 0.266 | 0.44 | 0.276 | 0.308 | 0.513 | 0.374 | 0.415 | 0.277
C[C@@H](Nc1cc(F)cc(F)c1)c1cc(C(=O)N(C)C)cc2c(=O)cc(N3CCOCC3)oc12 [AZD8186] + CC(=O)c1c(C)c2cnc(Nc3ccc(N4CCNCC4)cn3)nc2n(C2CCCC2)c1=O [Palbociclib] (first compound max 10 µM, 7x7, partner max 10 µM) | 0.0706 | 0.0498 | -0.0689 | 0.018 | 0.0182 | 0.085 | -0.0433 | 0.0763 | 0.0312 | 0.0895 | 0.0824 | 0.0795 | 0.08 | -0.0275 | -0.0299 | 0.0755 | 0.0582 | 0.0127 | 0.371 | 0.391 | 0.383 | 0.707 | 0.213 | 0.651 | 0.454 | 0.424 | 0.382 | 0.408 | 0.418 | 0.464 | 0.661 | 0.192 | 0.319 | 0.386 | 0.416 | 0.469
C[C@@H](Oc1cc(-c2cnn(C3CCNCC3)c2)cnc1N)c1c(Cl)ccc(F)c1Cl [Crizotinib] + CC1=C(C(=CC=C1)Cl)NC(=O)C2=CN=C(S2)NC3=CC(=NC(=N3)C)N4CCN(CC4)CCO [Dasatinib] (first compound max 10 µM, 7x7, partner max 2 µM) | -0.0665 | 0.0199 | 0.0003 | 0.0411 | 0.0443 | -0.0363 | -0.0103 | 0.0996 | -0.0425 | 0.0882 | 0.0191 | -0.0317 | -0.0263 | 0.0433 | -0.0202 | -0.0237 | -0.0751 | -0.0238 | 0.587 | 0.617 | 0.813 | 0.886 | 0.78 | 0.359 | 0.807 | 0.894 | 0.699 | 0.519 | 0.892 | 0.645 | 0.679 | 0.89 | 0.587 | 0.446 | 0.274 | 0.594
C[C@@H](Oc1cc(-c2cnn(C3CCNCC3)c2)cnc1N)c1c(Cl)ccc(F)c1Cl [Crizotinib] + Cn1cnc2c(F)c(Nc3ccc(Br)cc3Cl)c(C(=O)NOCCO)cc21 [Selumetinib] (first compound max 10 µM, 7x7, partner max 10 µM) | -0.0622 | 0.0015 | 0.006 | -0.063 | 0.0244 | 0.0228 | -0.0892 | -0.0482 | -0.0696 | -0.0158 | -0.0256 | 0.0066 | -0.0116 | -0.0493 | -0.0245 | -0.0414 | 0.0207 | -0.012 | 0.652 | 0.831 | 0.643 | 0.723 | 0.639 | 0.519 | 0.503 | 0.65 | 0.614 | 0.279 | 0.794 | 0.922 | 0.858 | 0.281 | 0.513 | 0.319 | 0.479 | 0.56
CS(=O)(=O)CCNCc1ccc(-c2ccc3ncnc(Nc4ccc(OCc5cccc(F)c5)c(Cl)c4)c3c2)o1 [Lapatinib] + Cn1cnc2c(F)c(Nc3ccc(Br)cc3Cl)c(C(=O)NOCCO)cc21 [Selumetinib] (first compound max 10 µM, 7x7, partner max 10 µM) | -0.0677 | -0.0563 | 0.0247 | 0.0289 | 0.0147 | 0.031 | 0.064 | -0.0123 | 0.0181 | 0.0033 | -0.0522 | -0.0934 | -0.0082 | 0.128 | -0.0156 | -0.0116 | -0.0416 | -0.0224 | 0.182 | 0.647 | 0.556 | 0.562 | 0.424 | 0.395 | 0.839 | 0.748 | 0.264 | 0.329 | 0.944 | 0.856 | 0.951 | 0.924 | 0.338 | 0.906 | 0.305 | 0.14
O=C(c1cc(Cc2n[nH]c(=O)c3ccccc23)ccc1F)N1CCN(C(=O)C2CC2)CC1 [Olaparib] + CC1(C)CCC(CN2CCN(c3ccc(C(=O)NS(=O)(=O)c4ccc(NCC5CCOCC5)c([N+](=O)[O-])c4)c(Oc4cnc5[nH]ccc5c4)c3)CC2)=C(c2ccc(Cl)cc2)C1 [Venetoclax] (first compound max 10 µM, 7x7, partner max 1 µM) | -0.0434 | -0.0331 | -0.059 | 0.0071 | -0.0398 | -0.0035 | -0.0661 | -0.014 | 0.0038 | 0.0029 | -0.0382 | 0.0143 | 0.0155 | -0.0428 | -0.0521 | -0.0322 | -0.0158 | 0.0167 | 0.101 | 0.109 | 0.125 | 0.611 | 0.0502 | 0.234 | 0.104 | 0.17 | 0.176 | 0.188 | 0.148 | 0.3 | 0.706 | 0.0823 | 0.136 | 0.104 | 0.208 | 0.166
O=C(c1cc(Cc2n[nH]c(=O)c3ccccc23)ccc1F)N1CCN(C(=O)C2CC2)CC1 [Olaparib] + CN(CC[C@H](CSC1=CC=CC=C1)NC2=C(C=C(C=C2)S(=O)(=O)NC(=O)C3=CC=C(C=C3)N4CCC(CC4)[C@H](C5=CC=CC=C5C6=CC=C(C=C6)Cl)O)S(=O)(=O)C(F)(F)F)CCO [AZD4320] (first compound max 10 µM, 7x7, partner max 1 µM) | -0.0444 | -0.0213 | -0.0548 | -0.0348 | -0.0461 | 0.0118 | -0.0702 | -0.0216 | 0.016 | 0.0263 | -0.0283 | 0.0028 | 0.0135 | 0.0041 | -0.097 | -0.0426 | 0.0271 | -0.0325 | 0.128 | 0.202 | 0.164 | 0.925 | 0.462 | 0.3 | 0.124 | 0.181 | 0.19 | 0.195 | 0.124 | 0.275 | 1 | 0.255 | 0.351 | 0.212 | 0.538 | 0.95
O=C(c1cc(Cc2n[nH]c(=O)c3ccccc23)ccc1F)N1CCN(C(=O)C2CC2)CC1 [Olaparib] + COc1nnc2ccc(N3CCC(c4ccc(OCCN5CCN(C)C(=O)[C@H]5C)cc4)CC3)nn12 [AZD5153] (first compound max 10 µM, 7x7, partner max 1 µM) | -0.082 | -0.0312 | -0.0072 | -0.0132 | -0.0267 | 0.0078 | -0.0544 | -0.0463 | -0.0311 | -0.0877 | -0.0643 | -0.0984 | -0.0196 | -0.0477 | -0.0865 | -0.0372 | -0.0615 | -0.0338 | 0.707 | 0.285 | 0.401 | 0.66 | 0.186 | 0.506 | 0.409 | 0.474 | 0.373 | 0.473 | 0.756 | 0.58 | 0.786 | 0.0626 | 0.286 | 0.762 | 0.48 | 0.239
